Measured values taken from publication PMC8296708, “The pan HDAC inhibitor Givinostat improves muscle function and histological parameters in two Duchenne muscular dystrophy murine models expressing different haplotypes of the LTBP4 gene” (Skeletal Muscle, 2021).

Assays:
mdx mice [1] = experiment: Histopathological evaluation of severity of myodystrophy in mdx mice; format: in vivo, mouse (C57BL/10ScSn-Dmd^mdx/J); settings: T16
Procedure: In these experiments, the histopathological evaluation of muscle inflammatory infiltrate, adipose tissue deposition, regeneration, and degeneration of the muscular tissue was also performed. The severity of myodystrophy in the different muscles (TA, GAS and DIA) was quantified through a weighted histopathological method that considered some parameters scored by severity and extension of the injury: muscle degeneration/necrosis, regeneration, inflammatory infiltrate, interstitial reaction, and adipose tissue deposition. Each parameter was classified by severity (mild = 1, moderate = 2, and severe = 3) and extension (focal = 1, multifocal = 2, and diffuse = 3). The individual severity score was calculated for each animal and an average score per group was calculated.

[2] = tested on: in vivo pulmonary fibrosis model; parameters: method as in McKinsey TA, unpublished results; settings: administered with the diet; ref McKinsey TA, unpublished results; cited from earlier work
mdx mice [3] = experiment: Grip strength test (maximal normalized strength, FNmax) in mdx mice; format: in vivo, mouse (C57BL/10ScSn-Dmd^mdx/J)
Description: For the efficacy studies, C57BL/10 J (Stock No: 000665) wild type (wt) and C57BL/10ScSn-Dmd^mdx/J (Stock No: 001801) 7–8-week-old male mice, DBA/2J wt (Stock No: 000671), and D2.B10-Dmd^mdx/J (Stock No: 013141) 6–7-week-old male mice were purchased from The Jackson Laboratories (Bar Harbor, Maine, USA). After 5 days of acclimatization in the animal facility, mice were randomized into different treatment groups based on their BW. C57BL/10J wt mice were assigned to the naive wt group (healthy mice that received no treatment, but were subjected to functional tests), whereas mdx mice were assigned to the following groups (9 mice/group; 4–5 mice/cage): naive mdx (mice that received no treatment, but were subjected to functional tests), vehicle (0.5% methylcellulose, p.o.), and Givinostat (0.1, 0.3, 1, 5, 10, 25, and 37.5 mg/kg, p.o.). DBA/2J mice were assigned to the naive wt group (healthy mice that received no treatment, but were subjected to functional tests), whereas D2.B10 mice were assigned to the following groups (12–13 mice/group; 4–5 mice/gage): vehicle (filtered tap water, p.o.), Givinostat (1, 5, 10, and 37.5 mg/kg, p.o.), prednisone 1 mg/kg, and Deflazacort 1 mg/kg (i.p.).
In the efficacy studies, Givinostat powder (ITF2357) was suspended in 0.5% methylcellulose (Sigma-Aldrich) and administered p.o. (by gavage) at the doses of 0.1, 0.3, 1, 5, 10, 25, and 37.5 mg/kg qdx5x15weeks (administration volume per mouse: 10 mL/kg) in mdx mice (see Additional Figure 1A). Vehicle-treated mdx mice received 0.5% methylcellulose suspension. Givinostat suspension was stored at + 4 °C, and it was freshly prepared every 7 days. […] Water consumption was weekly monitored throughout the entire duration of the study weighing the bottle of each cage (maximum 4 mice per cage). […] All mice were monitored daily and tolerability was evaluated on the basis of BW and clinical signs.
In both efficacy studies, the effectiveness of treatments was evaluated every week by measuring the forelimb strength by a grip strength meter (Ugo Basile SRL, Italy). BW of mdx (see Additional Figure 2) and D2.B10 mice (see Additional Figure 3) was also measured in order to normalize the absolute grip strength of each mouse with respect to its BW. […] The highest recorded value of maximal normalized strength (FNmax) obtained for each mouse at all the time points (from T0 to T15) was used for further analysis.
After taking baseline readings for behavioral assays (FNmax and distance run by the animals), mice were re-randomized based on these two parameters, also considering the previous randomization performed on their BW. […]

Structure (SMILES): CCN(CC)Cc1ccc2cc(COC(=O)Nc3ccc(C(=O)NO)cc3)ccc2c1 [Givinostat]
- Histological evaluation of inflammatory infiltrate, adipose tissue deposition, regeneration, degeneration (mdx mice [1]): not significantly different among the treatment groups
- Activity in in vivo pulmonary fibrosis model [2]: inactive
- FNmax level on treatment day 49 (mdx mice [3]; 37.5 mg/kg p.o., transient): comparable to that of wt healthy mice
- Effect on maximal normalized strength (FNmax) (mdx mice [3]; 0.1-37.5 mg/kg p.o. qdx5x15weeks): remarkable, dose-dependent increase of the FNmax
- Dose of maximal efficacy on FNmax (mdx mice [3]; p.o. qdx5x15weeks): 37.5 mg/kg
- Persistence of beneficial effect on FNmax (mdx mice [3]; vs vehicle): remained significant up to day 105
